test system: human T cells (monocyte-free); assay: Inhibition of 5-HT-dependent T cell proliferation; type: cell-based; settings: inhibition of T cell proliferation stimulated with PWM (1:200) and 5-HT (100 μm), 3H-thymidine incorporation, 7 days, test range 33 μM-0.1 μM
Text: The in vitro activity of the compounds according to the invention results from their capability to inhibit T cell proliferation, which is previously stimulated by serotonin.
Peripheral mononuclear blood cells (PBMC) are obtained from the buffy coat of the blood of healthy subjects. After isolation by means of isolymph gradients (Pharmacia), the PBMC are washed twice and used directly. Purified T cells are obtained by E rosette formation with sheep erythrocytes [cf. Blue, M. -L., J. F. Daley, H. Levine, K. A. Craig and S. F. Schlossmann, 1986, Biosynthesis and surface expression of T8 by peripheral blood T4+ cells in vitro, J. Immunol. 137, 1202]. Monocytes are partially removed by adhesion to tissue culture plates or flasks. PBMC, T cells or purified T cells (depleted in monocytes) at 5×10^5 /ml, 100 µl/well are cultured in RPMI 1640 medium with 10% fetal calf serum (GIBCO) and L-glutamine in 96-well microculture plates (Becton-Dickinson) under a 5% CO2 atmosphere at 37° C. for 7 days. The cultures are treated with 1 μCi of ^3 H-thymidine for 6 h on the 7th day and collected on filter paper, and the incorporated radioactivity is determined by means of liquid scintillation counting.
The test substances are dissolved in 10 mM HCl in order to achieve a final concentration of 1 mM in each case. The compounds are diluted serially 3× with medium in order to obtain a final concentration between 33 μM-0.1 μM. PWM (1:200, pokeweed mitogen) and 5-HT (100 μm, serotonin), which contain the test substances, are added to monocyte-free human T cells. The positive control (maximum proliferation ) is obtained from cultures containing T cells, PWM and 5-HT. The negative control (minimal proliferation) is obtained from cultures containing T cells and PWM without 5-HT. The inhibitory activity of the test substances is expressed as the IC50 in μM. (see also WO 92/04015)

In order of rising IC50:
1. c1ccc(N2CCC3CN(CCCN4CC5C6c7ccccc7C(c7ccccc76)C5C4)CC32)cc1 (centres unmarked) [Example 10]  1 µM
2. C1=CC2C3CCC3C1C1CN(CCCN3CC4C5c6ccccc6C(c6ccccc65)C4C3)CC21 (centres unmarked) [Example 11]  1 µM
3. O=C1C2C3c4ccccc4C(c4ccccc43)C2C(=O)N1CCCN1CC2C3C=CC(C4CCC34)C2C1 (centres unmarked) [Example 5]  4 µM
4. O=C1C2C3c4ccccc4C(c4ccccc43)C2C(=O)N1CCCN1CC2C3C=CC(C4CC34)C2C1 (centres unmarked) [Example 1, 13-[3-(4,6-Etheno-perhydro-cycloprop[f]isoindol-2-yl)propyl]-9,10-dihydro-9,10-[3', 4']-pyrroloanthracene-12,14[11H,15H) -dione]  5 µM
5. O=C1C2C3c4ccccc4C(c4ccccc43)C2C(=O)N1CCCN1CC2CCN(c3ccccc3)C2C1 (centres unmarked) [Example 2]  5 µM
6. O=C1C2C3c4ccccc4C(c4ccccc43)C2C(=O)N1CCCN1CC[Si](c2ccccc2)(c2ccccc2)CC1 (centres unmarked) [Example 4]  20 µM
7. c1ccc(CN2CCOC3CN(CCCN4CC5C6c7ccccc7C(c7ccccc76)C5C4)CC32)cc1 (centres unmarked) [Example 9]  20 µM
8. O=C1C2C3c4ccccc4C(c4ccccc43)C2C(=O)N1CCCN1CC2CC=CC(CO)C2C1 (centres unmarked) [Example 3]  30 µM

— patent publication US5411960A, “Substituted pyrroloanthracenes and -diones” (Bayer Aktiengesellschaft, priority 1993, dated 1995)
